The term pIC50 denotes the negative decadic logarithm of the IC50, by convention in mol/L.

SMILES strings stand for the structures. pIC50: −log10 of the molar value. Like-named read-outs stand apart in the source and are kept apart here.

For data set [1] the following is noted: cited from earlier work.
The target in data set [2] is GABAA receptors. The data set can be described thus: Current evoked by puff of 100 μM GABA and caged compounds around the soma (Matsuzaki et al., 2010). It is filed as cell-based. The following applies: for IC33: calculated, q=0.33. The method, then:
(§1) FIG. 26 illustrates whole-cell patch clamp recordings from dentate granule cells of rat hippocampal slices reported by Molnár & Nadler, 2000. […] Holding potential of −80 mV. (Molnár & Nadler, 2000 European Journal of Pharmacology, 391, 255-262, which is incorporated herein by reference as if fully set forth, which is incorporated herein by reference as if fully set forth). […] FIG. 27 illustrates summary of the amplitudes of the current evoked by puff of 100 μM GABA and caged compounds around the soma reported by Matsuzaki et al., 2010. The amplitude was normalized to the mean current that was induced by GABA application alone. Left panel illustrates control (n=7); +10 mM CNI-GABA (n=7). Central panel illustrates control (n=10); +0.4 mM CDNI-GABA (n=10), +1.35 mM CDNI-GABA (n=14); +10 mM CDNI-GABA (n=10). Right panel illustrates control (n=9); +1 mM MNI-Glu (n=4); +10 mM MNI-Glu (n=9). ** p<0.0001, * p<0.01 (Matsuzaki et al., 2010 Nature Chemical Biology, 6, 255-257, which is incorporated herein by reference as if fully set forth). […] Though this is a much higher concentration compared to the IC50 for CNB-GABA, CDNI requires a higher concentration when photolyzed in vitro because of its two-photon sensitivity. Because 10 mM is the concentration used for two-photon uncaging, this antagonism is still practically limiting. […] FIG. 28 illustrates the effects of NI-caged GABA and DPNI-GABA on amplitudes of miniature GABA synaptic currents as reported by Trigo et al., 2009. Referring to FIG. 28 (left), this panel illustrates recordings of miniature synaptic GABA currents in molecular layer interneurons before and during application of 1 mM DPNI-GABA. The initial inward current on diluting the cage into the bath was attributable to contaminating levels of GABA. Referring to FIG. 28 (right), the panel illustrates summary histogram from five cells of the block of spontaneous GABA currents by DPNI-GABA at different concentrations in the bath. (Trigo et al., 2009 Journal of Neuroscience Methods, 181, 159-169, which is incorporated herein by reference as if fully set forth).

Data set [3] deals with GABAA receptors. The following applies: Table 2; Matsuzaki et al. 2010; read-out: IC50 in blocking synaptic GABAA currents; cited from earlier work.
For data set [4] the following is noted: aqueous solution; literature; cited from earlier work.
The conditions of data set [5]: cited from earlier work. This is another data set of the same source.
The target in data set [6] is GABAA receptors. The following applies: cited from earlier work.
Data set [7] deals with cerebellar molecular layer interneurons. The data set can be described thus: Photolysis-evoked GABAergic currents in cerebellar molecular layer interneurons. It is filed as cell-based. On the procedure:
The biological properties of our synthetic bis-CNB-GABA were evaluated using whole-cell patch recording from cerebellar molecular layer interneurons.
FIGS. 42A-42E illustrate physiological responses to photolysis of bis-CNB-GABA. FIG. 42A illustrates a cerebellar molecular layer interneuron visualized using Alexa 488 in the patch recording electrode solution. Referring to FIG. 42A, bis-CNB-GABA (0.6 mM) was photolyzed with a 405 nm laser spot in 3 different locations (indicated by 1, 2 and 3). Still referring to FIG. 42A, laser-evoked GABAergic currents are shown on the right panel. Still referring to FIG. 42A, gray traces show individual sweeps and black traces are averages. Still referring to FIG. 42A, the gray sweep at bottom indicates the laser flash (1 ms duration, intensity 5 mW) as recorded using a photodiode. FIG. 42B illustrates bis-CNB-GABA (1.4 mM) was photolyzed with a […] LED at progressively higher flash energies (0.25-1.1 mW, 5-50 ms, 1.25-55 μJ). FIG. 42C illustrates the same experiment as shown in FIG. 42B with Responses to mono-CNB-GABA (50 μM). FIG. 42D illustrates normalized current as a function of relative LED flash energies plotted on a log-log scale. FIG. 42E illustrates laser-evoked whole-cell current recorded in the absence and presence of 3 μM gabazine, a GABA receptor antagonist. Referring to FIG. 42E, a larger flash energy was used in the presence of gabazine.
Referring to FIG. 42A, molecular layer interneurons receive excitatory glutamatergic synapses, as well as inhibitory GABAergic synapses that show a pronounced level of spontaneous activity (gray traces). The effects of bis-CNB-GABA on these synaptic currents were tested.
By contrast, the relationship for mono-O-CNB-GABA was close to linear (log-log slope=1.3±0.1, n=3). For these measurements, evoked currents were normalized to the maximum current observed in the same neuron. […] These power laws are consistent with a process in which each molecule of bis-CNB-GABA must cumulatively undergo two uncaging reactions in order to release an active GABAA agonist.
To test whether bis-CNB-GABA-evoked responses resemble physiological events in their kinetics, we measured the kinetic properties of flash responses. […] This rise time is consistent with the dark reaction time (1.5 ms) for the slower cage, N-mono-CNB-GABA (Wieboldt, R.; Ramesh, D.; Carpenter, B. K; Hess, G. P. Biochemistry, 1994, 33, 1526-1533, which is incorporated herein by reference as if fully set forth). […] These rates approach those of spontaneous events and are among the fastest described for other GABA cages. […]

Data set [8] has as its system GABAA receptors. The following applies: cited from earlier work. This is another data set of the same source.
Data set [9] has as its system GABAA receptors. Nature of the data set: Miniature GABA synaptic currents in molecular layer interneurons (Trigo et al., 2009). Type of data set: cell-based. On the procedure: as §1
Another data set concerns cerebellar interneurons. The following applies: FIG. 43A, 1 mM; see Trigo et al., 2009; cited from earlier work.
For data set [10] the following is noted: N-position; Wieboldt et al., 1994; cited from earlier work.

In the case of `COc1ccc([N+](=O)[O-])c2c1CCN2C(=O)CC[C@H](N)C(=O)O` [MNI-glu], in data set [1] (literature values), the quantum yield was 0.085. For the same molecule, the negative logarithm of the IC50 (pIC50) on GABAA receptors [2] (Table 1, calculated from data of Matsuzaki et al. 2010) was 2.96. For the same molecule, the IC33 in the data set on GABAA receptors [2] (Table 1) is 0.37.

With `NCCCC(=O)N1CCc2c(OCC(=O)O)c([N+](=O)[O-])cc([N+](=O)[O-])c21` [CDNI-GABA], the “product of extinction coefficient and quantum yield (ε×Φ)” value in data set [1] (literature values) is recorded as 3,840 M^−1 cm^−1. Besides, the quantum yield in data set [1] (literature values) is 0.6. Besides, the “concentration showing 33% reduced response” value in the data set on GABAA receptors [2] is 220 µM. In the data set with GABAA receptors [2] (Table 1), the IC33 is 0.22. Besides, the pIC50 at GABAA receptors [2] (from data of Matsuzaki et al., 2010) was 3.35; on GABAA receptors [3], 3.22. Moreover, in data set [4], the Stability result is reported as “Stable”. The extinction coefficient in data set [5] (at 330 nm) is 6,400 M^−1 cm^−1.

Turning to `O=C(O)CC[C@H](NC(=O)OCc1cc(=O)oc2cc(O)c(Br)cc12)C(=O)O` [Bhc-glutamate], in [1] (caged on the amine), the “product of extinction coefficient and quantum yield (φ×ε)” value was 331 M⁻¹ cm⁻¹; the quantum yield is recorded as 0.019. In addition, in data set [1] (literature values), the “product of extinction coefficient and quantum yield (ε×Φ)” value is 371 M⁻¹ cm⁻¹; the quantum yield is given as 0.019. Also, in [5] (at 368 nm, caged on the amine), the extinction coefficient was 17,470 M^−1 cm^−1. Besides, in [5] (at 369 nm, caged at the carboxylate), the extinction coefficient is given as 19,550 M^−1 cm^−1.

Take `CP(C)C.F[P-](F)(F)(F)(F)F.F[P-](F)(F)(F)(F)F.NC(CCC(=O)[O-])C(=O)[O-].[Na+].[Na+].[Ru+2].c1ccc(-c2ccccn2)nc1.c1ccc(-c2ccccn2)nc1` [RuBi-glutamate]: at GABAA receptors [6] (Table 2 footnote 2, Fino et al., 2009, read-out: IC50 in blocking synaptic GABAA currents), the negative-log IC50 (pIC50) was 3.52.

For `COc1ccc(-c2ccc(=N)n(CCCC(=O)O)n2)cc1` [gabazine], in data set [7] (3 μM gabazine), the “effect on currents produced by photolysis of bis-CNB-GABA” value is reported as “reversibly eliminated”. The “effect on responses to photolysis of bis-CNB-GABA” value in data set [7] (3 M gabazine) is reported as “eliminated these responses”.

For `NCCCC(=O)N1CCc2c(OC(COP(=O)(O)O)COP(=O)(O)O)ccc([N+](=O)[O-])c21` [DPNI-GABA], the decrease in response with GABAA receptors [8] (1 mM) is reported as greater than 50%. Besides, the pIC50 is 3.30 at GABAA receptors [8] (Table 2, cerebellar interneurons, read-out: IC50 in blocking synaptic GABAA currents) and 3.33 at GABAA receptors [9] (from data of Trigo et al., 2009). In addition, in the data set with GABAA receptors [8] (Trigo et al., 2009), the “effect on rise times of IPSCs” value is given as “prolongs rise times”. For the same molecule, the “concentration showing 33% reduction” value in the data set on GABAA receptors [9] was determined as 230 µM. The IC33 with GABAA receptors [9] (Table 1, calculated, q=0.33) is 0.23 mM. Besides, the “effect on inward holding current compared with mono-O-CNB-GABA” value with cerebellar interneurons is reported as “similar, though less pronounced”. Also, the Stability entry in data set [4] is recorded as “Stable”.

`F[P-](F)(F)(F)(F)F.NCCCC(=O)[O-].[Ru+2].c1ccc(-c2ccccn2)nc1.c1ccc(-c2ccccn2)nc1.c1ccc(P(c2ccccc2)c2ccccc2)cc1` [RuBi-GABA, Ruthenium-bipyridine-triphenylphosphine-GABA]: in the data set on GABAA receptors [6] (Verde et al., 2008), the “concentrations at which antagonistic GABAA receptor activity is exhibited” value was “above 20 μM”.

As for `O=C(O)CCCNC(C(=O)O)c1ccccc1[N+](=O)[O-]` (stereo not shown) [N-mono-CNB-GABA], the dark reaction time in data set [10] is recorded as 1.5 ms.

For `COc1ccc([N+](=O)[O-])c2c1CCN2C(=O)CCCN` [MNI-GABA], the “effect on GABAA receptors” value in the data set with GABAA receptors [6] (less than CNB-GABA, Palma-Cerda et al., 2012) is reported as “antagonistic effect”.

Values taken from patent publication US9625448B2, “Double caged GABA compounds, bis-CNB-GABA” (The Trustees of Princeton University, priority 2014, dated 2017).
